In patent publication US11407760B2, “Dioxinoquinoline compounds, preparation method and uses thereof” (BEIJING SCITECH-MQ PHARMACEUTICALS LIMITED, priority 2018, dated 2022):

Tested on: MHCC97H cells
Test: Inhibitory activity on the proliferation of MHCC97H cells (CCK-8)
Assay type: cell-based
Conditions: Homo sapiens, MHCC97H cell proliferation, 72 hours of incubation
Description: Biological Example 3. Assay of the Inhibitory Activity of Small Molecular Compounds on the Proliferation of MHCC97H Cells
The specific steps of the assay are as follows:
1. Dilution of compounds: a total of 9 concentrations were obtained using a 3-fold gradient dilution from the highest concentration of 5000 nM (the maximum final concentration of the drug used in this assay was 5000 nM, and the minimum final concentration was 0.76 nM).
2. MHCC97H cells were collected, then transferred to a 15 mL centrifuge tube, and centrifuged at 1000 rpm for 5 minutes.
3. The supernatant was discarded, and the complete medium was added and pipetted evenly, 10 μL of cell suspension was taken out and mixed evenly with 10 μL of 0.4% trypan blue, the counting was carried out with a cell counter, and the number and survival rate of cells were recorded;
4. The cell suspension was seeded into a 96-well plate at 5000 cells/80 μL per well;
5. 20 μL of the corresponding 5× compound solution diluted with the medium mentioned above was added to each well and mixed evenly;
6. After 72 hours of incubation, 10 μL of CCK-8 reagent was added to each well and incubated for another 2 hours (the reaction time can be adjusted according to the color depth);
7. The OD value was read at 450 nm on a multi-function plate reader.
8. Data processing: cell survival rate (%)=[(As−Ab)/(Ac−Ab)]*100%
As: OD value of assay well (medium containing cells, CCK-8, compound),
Ac: OD value of control well (medium containing cells, CCK-8),
Ab: OD value of blank well (CCK-8, medium without cell and compound),
The values were then imported into Graphpad Prism5 software for curve fitting, and IC50 was calculated.
Table 3 lists the assay results of the inhibitory activity of some compounds disclosed herein on the proliferation of the MHCC97H cell line.

SMILES | IC50 [nM]
O=C(Nc1ccc(F)cc1)C1(C(=O)Nc2ccc(Oc3ccnc4cc(OC5COC5)c5c(c34)OCCO5)c(F)c2)CC1 [Example 28, N-(3-fluoro-4-((5-(oxetan-3-yloxy)-2,3-dihydro-[1,4]dioxino[2,3-f]quinolin-10-yl)oxy)phenyl)-N-(4-fluorophenyl)cyclopropan-1,1-dicarboxamide] | < 50
COc1cc2nccc(Oc3ccc(NC(=O)C4(C(=O)Nc5ccc(F)cc5)CC4)c(F)c3)c2c2c1OCCO2 [Example 3, N-(2-fluoro-4-((5-methoxy-2,3-dihydro-[1,4]dioxino[2,3-f]quinolin-10-yl)oxy)phenyl)-N-(4-fluorophenyl)cyclopropan-1,1-dicarboxamide] | < 50
CN(C)CCCOc1cc2nccc(Oc3ccc(NC(=O)C4(C(=O)Nc5ccc(F)cc5)CC4)cc3F)c2c2c1OCCO2 [Example 8, N-(4-((5-(3-(dimethylamino)propoxy)-2,3-dihydro-[1,4]dioxino[2,3-f]quinolin-10-yl)oxy)-3-fluorophenyl)-N-(4-fluorophenyl)cyclopropan-1,1-dicarboxamide] | < 50
O=C(Nc1ccc(F)cc1)C1(C(=O)Nc2ccc(Oc3ccnc4cc(OCCCN5CCCC5)c5c(c34)OCCO5)c(F)c2)CC1 [Example 25, N-(3-fluoro-4-((5-(3-(pyrrolidin-1-yl)propoxy)-2,3-dihydro-[1,4]dioxino[2,3-f]quinolin-10-yl)oxy)phenyl)-N-(4-fluorophenyl)cyclopropan-1,1-dicarboxamide] | < 50
N#CCCCOc1cc2nccc(Oc3ccc(NC(=O)C4(C(=O)Nc5ccc(F)cc5)CC4)cc3F)c2c2c1OCCO2 [Example 26, N-(3-fluoro-4-((5-(3-cyanopropoxy)-2,3-dihydro-[1,4]dioxino[2,3-f]quinolin-10-yl)oxy)phenyl)-N-(4-fluorophenyl)cyclopropan-1,1-dicarboxamide] | < 50
CN(CCCOc1cc2nccc(Oc3ccc(NC(=O)C4(C(=O)Nc5ccc(F)cc5)CC4)cc3F)c2c2c1OCCO2)C1CCC1 [Example 23, N-(4-((5-(3-(cyclobutyl(methyl)amino)propoxy)-2,3-dihydro-[1,4]dioxino[2,3-f]quinolin-10-yl)oxy)-3-fluorophenyl)-N-(4-fluorophenyl)cyclopropan-1,1-dicarboxamide] | < 50
COCCOc1cc2nccc(Oc3ccc(NC(=O)C4(C(=O)Nc5ccc(F)cc5)CC4)cc3F)c2c2c1OCCO2 [Example 10, N-(3-fluoro-4-((5-(2-methoxyethoxy)-2,3-dihydro-[1,4]dioxino[2,3-f]quinolin-10-yl)oxy)phenyl)-N-(4-fluorophenyl)cyclopropan-1,1-dicarboxamide] | < 50
CN(C)CCCCCCOc1cc2nccc(Oc3ccc(NC(=O)C4(C(=O)Nc5ccc(F)cc5)CC4)cc3F)c2c2c1OCCO2 [Example 27, N-(4-((5-((6-(dimethylamino)hexyl)oxy)-2,3-dihydro-[1,4]dioxino[2,3-f]quinolin-10-yl)oxy)-3-fluorophenyl)-N-(4-fluorophenyl)cyclopropan-1,1-dicarboxamide] | < 50
COCCCOc1cc2nccc(Oc3ccc(NC(=O)C4(C(=O)Nc5ccc(F)cc5)CC4)cc3F)c2c2c1OCCO2 [Example 14, N-(3-fluoro-4-((5-(3-methoxypropoxy)-2,3-dihydro-[1,4]dioxino[2,3-f]quinolin-10-yl)oxy)phenyl)-N-(4-fluorophenyl)cyclopropan-1,1-dicarboxamide] | < 50
O=C(Nc1ccc(F)cc1)C1(C(=O)Nc2ccc(Oc3ccnc4cc(OCCCN5CCS(=O)(=O)CC5)c5c(c34)OCCO5)c(F)c2)CC1 [Example 24, N-(4-((5-(3-(1,1-dioxothiomorpholin-4-yl)propoxy)-2,3-dihydro-[1,4]dioxino[2,3-f]quinolin-10-yl)oxy)-3-fluorophenyl)-N-(4-fluorophenyl)cyclopropan-1,1-dicarboxamide] | < 50
O=C(Nc1ccc(F)cc1)C1(C(=O)Nc2ccc(Oc3ccnc4cc(OCCCN5CCCCC5)c5c(c34)OCCO5)c(F)c2)CC1 [Example 9, N-(4-((5-(3-(piperidin-1-yl)propoxy)-2,3-dihydro-[1,4]dioxino[2,3-f]quinolin-10-yl)oxy)-3-fluorophenyl)-N-(4-fluorophenyl)cyclopropan-1,1-dicarboxamide] | < 50
CCOc1cc2nccc(Oc3ccc(NC(=O)C4(C(=O)Nc5ccc(F)cc5)CC4)cc3F)c2c2c1OCCO2 [Example 7, N-(4-((5-ethoxy-2,3-dihydro-[1,4]dioxino[2,3-f]quinolin-10-yl)oxy)-3-fluorophenyl)-N-(4-fluorophenyl)cyclopropan-1,1-dicarboxamide] | < 50
O=C(Nc1ccc(F)cc1)C1(C(=O)Nc2ccc(Oc3ccnc4cc(OCCCN5CCOCC5)c5c(c34)OCCO5)cc2F)CC1 [Example 6, N-(2-fluoro-4-((5-(3-morpholinopropoxy)-2,3-dihydro-[1,4]dioxino[2,3-f]quinolin-10-yl)oxy)phenyl)-N-(4-fluorophenyl)cyclopropan-1,1-dicarboxamide] | < 50
O=C(Nc1ccc(F)cc1)C1(C(=O)Nc2ccc(Oc3ccnc4cc(OCCCN5CCOCC5)c5c(c34)OCCO5)c(F)c2)CC1 [Example 5, N-(3-fluoro-4-((5-(3-morpholinopropoxy)-2,3-dihydro-[1,4]dioxino[2,3-f]quinolin-10-yl)oxy)phenyl)-N-(4-fluorophenyl)cyclopropan-1,1-dicarboxamide] | < 50
COc1cc2nccc(Oc3ccc(NC(=O)C4(C(=O)Nc5ccc(F)cc5)CC4)cc3F)c2c2c1OCCO2 [Example 2, N-(3-fluoro-4-((5-methoxy-2,3-dihydro-[1,4]dioxino[2,3-f]quinolin-10-yl)oxy)phenyl)-N-(4-fluorophenyl)cyclopropan-1,1-dicarboxamide] | < 50
NC1(COc2cc3nccc(Oc4ccc(NC(=O)C5(C(=O)Nc6ccc(F)cc6)CC5)cc4F)c3c3c2OCCO3)CC1 [Example 33, N-(4-((5-((1-aminocyclopropyl)methoxy)-2,3-dihydro-[1,4]dioxino[2,3-f]quinolin-10-yl)oxy)-3-fluorophenyl)-N-(4-fluorophenyl)cyclopropan-1,1-dicarboxamide] | < 50
COc1cc2nccc(Oc3ccc(NC(=O)C4(C(=O)Nc5ccc(F)cc5)CC4)cc3)c2c2c1OCCO2 [Example 1, N-(4-fluorophenyl)-N-(4-((5-methoxy-2,3-dihydro-[1,4]dioxino[2,3-f]quinolin-10-yl)oxy)phenyl)cyclopropan-1,1-dicarboxamide] | < 50
COCCN(C)CCCOc1cc2nccc(Oc3ccc(NC(=O)C4(C(=O)Nc5ccc(F)cc5)CC4)cc3F)c2c2c1OCCO2 [Example 15, N-(3-fluoro-4-((5-(3-((2-methoxyethyl)(methyl)amino)propoxy)-2,3-dihydro-[1,4]dioxino [2,3-f]quinolin-10-yl)oxy)phenyl)-N-(4-fluorophenyl)cyclopropan-1,1-dicarboxamide] | < 50
O=C(Nc1ccc(F)cc1)C1(C(=O)Nc2ccc(Oc3ccnc4cc(OCCO)c5c(c34)OCCO5)c(F)c2)CC1 [Example 32, N-(3-fluoro-4-((5-(2-hydroxyethoxy)-2,3-dihydro-[1,4]dioxino[2,3-f]quinolin-10-yl)oxy)phenyl)-N-(4-fluorophenyl)cyclopropan-1,1-dicarboxamide] | < 50
O=C(Nc1ccc(F)cc1)C1(C(=O)Nc2ccc(Oc3ccnc4cc(OCCCO)c5c(c34)OCCO5)c(F)c2)CC1 [Example 13, N-(3-fluoro-4-((5-(3-hydroxypropoxy)-2,3-dihydro-[1,4]dioxino[2,3-f]quinolin-10-yl)oxy)phenyl)-N-(4-fluorophenyl)cyclopropan-1,1-dicarboxamide] | < 50
O=C(Nc1ccc(F)cc1)C1(C(=O)Nc2ccc(Oc3ccnc4cc(OCCCN5CCOCC5)c5c(c34)OCCO5)cc2)CC1 [Example 4, N-(4-fluorophenyl)-N-(4-((5-(3-morpholinopropoxy)-2,3-dihydro-[1,4]dioxino[2,3-f]quinolin-10-yl)oxy)phenyl)cyclopropan-1,1-dicarboxamide] | < 50
O=C(Nc1ccc(F)cc1)C1(C(=O)Nc2ccc(Oc3ccnc4cc(OC5CCOC5)c5c(c34)OCCO5)c(F)c2)CC1 (stereo not drawn) [Example 17, N-(3-fluoro-4-((5-((tetrahydrofuran-3-yl)oxy)-2,3-dihydro-[1,4]dioxino[2,3-f]quinolin-10-yl)oxy)phenyl)-N-(4-fluorophenyl)cyclopropan-1,1-dicarboxamide] | < 50
CC1(N)CCN(CCCOc2cc3nccc(Oc4ccc(NC(=O)C5(C(=O)Nc6ccc(F)cc6)CC5)cc4F)c3c3c2OCCO3)CC1 [Example 30, N-(3-fluoro-4-((5-(3-(4-amino-4-methylpiperidin-1-yl)propoxy)-2,3-dihydro-[1,4]dioxino[2,3-f]quinolin-10-yl)oxy)phenyl)-N-(4-fluorophenyl)cyclopropan-1,1-dicarboxamide] | < 500
CN1CCN(CCCOc2cc3nccc(Oc4ccc(NC(=O)C5(C(=O)Nc6ccc(F)cc6)CC5)cc4F)c3c3c2OCCO3)CC1 [Example 21, N-(4-((5-(3-(4-methylpiperazin-1-yl)propoxy)-2,3-dihydro-[1,4]dioxino[2,3-f]quinolin-10-yl)oxy)-3-fluorophenyl)-N-(4-fluorophenyl)cyclopropan-1,1-dicarboxamide] | < 50
